The values that follow come from patent publication US12084458B2, “Substituted pyridines, pyridazines, and pyrimidines as TYK2 inhibitors” (Sudo Biosciences Limited, priority 2021, dated 2024).

The target in one assay is T1, JAK1 kinase domain (JH1) (Homo sapiens, UniProt P23458).
T1 construct: recombinant purified His or GST-tagged catalytic domain for each enzyme; made in house
Nature of the assay: HTRF-based selectivity assay, JAK1 catalytic domain. It counts as biochemical. Particulars: recombinant catalytic domain, ATP 21.43 μM. The gist of the method:
(§1)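 Tagged recombinant catalytic domains with peptide substrate in HTRF, buffer 50 mM HEPES, 10 mM MgCl2, 1 mM EGTA, 2 mM DTT, 0.01% Tween-20; enzyme preincubated 5-20 min with compound, then reacted 60 min at 26.5 °C. Final ATP: TYK2 20 μM, JAK1 21.43 μM, JAK2 14.7 μM, JAK3 2.12 μM; substrate 217, 454.7, 200, 257.4 nM respectively.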
A general note: TR-FRET usually uses a lanthanide donor and a delayed reading to cut background.

For assay [1], the system named is HEK-Blue IFNα/β cells (IFNα-stimulated STAT1 SEAP reporter; TYK2 JH2). Kind of assay: HEK-Blue IFNα/β SEAP reporter assay for profiling TYK2 pseudokinase (JH2) inhibition. It counts as cell-based. Particulars: Homo sapiens, HEK-Blue, 1 ng/mL human recombinant IFNα, read-out: IFNα (TYK2 inhibitory activity, IC50). The gist of the method: (§2)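 SEAP read-out (QUANTI-Blue) after cytokine stimulation: IL-23 line given 10 ng/mL human IL-23 for 22-24 h; IFNα/β line given 1 ng/mL human IFNα for 16-18 h. Serially diluted compounds added 60 min before cytokine, to cells plated 20-22 h beforehand.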
For orientation: A reporter such as luciferase makes a cellular process visible.

For another assay, the target named is T2, TYK2 kinase domain (JH1) (Homo sapiens, UniProt P29597).
T2 construct: recombinant purified His or GST-tagged catalytic domain for each enzyme; made in house
T2 sequence (P29597 897-1176 limits assumed): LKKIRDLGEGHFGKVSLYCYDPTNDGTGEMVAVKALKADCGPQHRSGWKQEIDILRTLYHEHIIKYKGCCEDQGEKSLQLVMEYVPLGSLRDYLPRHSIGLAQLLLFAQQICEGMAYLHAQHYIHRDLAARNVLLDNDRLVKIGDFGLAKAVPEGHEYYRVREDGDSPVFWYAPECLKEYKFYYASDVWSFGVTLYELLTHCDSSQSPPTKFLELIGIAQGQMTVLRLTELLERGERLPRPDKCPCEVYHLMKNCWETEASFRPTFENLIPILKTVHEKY
Nature of the assay: HTRF-based selectivity assay, TYK2 catalytic domain. The assay is classed as biochemical. As to conditions: recombinant catalytic domain, ATP 20 μM. The method in brief: as §1

The target of another assay is T3, JAK2 kinase domain (JH1) (Homo sapiens, UniProt O60674).
T3 construct: recombinant purified His or GST-tagged catalytic domain for each enzyme; made in house
T3 sequence (O60674 849-1124 limits assumed): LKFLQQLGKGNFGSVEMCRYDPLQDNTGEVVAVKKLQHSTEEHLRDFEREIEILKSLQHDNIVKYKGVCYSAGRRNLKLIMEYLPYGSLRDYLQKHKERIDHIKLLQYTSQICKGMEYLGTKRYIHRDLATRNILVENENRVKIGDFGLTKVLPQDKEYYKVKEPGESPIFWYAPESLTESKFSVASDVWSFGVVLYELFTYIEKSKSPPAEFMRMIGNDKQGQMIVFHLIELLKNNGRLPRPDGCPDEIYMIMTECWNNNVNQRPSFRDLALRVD
Nature of the assay: HTRF-based selectivity assay, JAK2 catalytic domain. It counts as biochemical. Particulars: recombinant catalytic domain, ATP 14.7 μM. The method in brief: as §1

Assay [2] concerns HEK-Blue IL-23 cells (IL-23-stimulated STAT3 SEAP reporter; TYK2 JH2). Nature of the assay: HEK-Blue IL-23 SEAP reporter assay for profiling TYK2 pseudokinase (JH2) inhibition. It counts as cell-based. Particulars: 10 ng/mL human recombinant IL-23, SEAP reporter, read-out: IL23 (TYK2 inhibitory activity, IC50). The gist of the method:
as §2

Assay [3] relates to HEK-Blue IL-2 reporter cells (IL-2-stimulated STAT5 SEAP reporter). Kind of assay: HEK-Blue IL-2 SEAP reporter assay for determining selectivity. The assay is classed as cell-based. Particulars: 4 ng/mL human recombinant IL-2. The method in brief: (§3)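 Cells were plated for 20-22 h, then pretreated with serially diluted compound for 60 min. They were stimulated for 24 h with 4 ng/mL human recombinant IL-2 or 50 ng/mL human recombinant IFNγ, and SEAP induction was read with QUANTI-Blue.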

Assay [4] concerns HEK-Blue IFNγ reporter cells (IFNγ-stimulated STAT1 SEAP reporter). Nature of the assay: HEK-Blue IFNγ SEAP reporter assay for determining selectivity. The assay is classed as cell-based. As to conditions: Homo sapiens, HEK-Blue, 50 ng/mL human recombinant IFNγ, read-out: IFN-γ (SEAP selectivity, IC50). The gist of the method:
as §3

Another assay has as its target T4, JAK3 kinase domain (JH1) (Homo sapiens, UniProt P52333).
T4 construct: recombinant purified His or GST-tagged catalytic domain for each enzyme; purchased Carna biosciences 08-046
Kind of assay: HTRF-based selectivity assay, JAK3 catalytic domain. Particulars: recombinant catalytic domain, ATP 2.12 μM. The assay is classed as biochemical. The gist of the method: as §1

T4 sequence (P52333 822-1111 limits assumed): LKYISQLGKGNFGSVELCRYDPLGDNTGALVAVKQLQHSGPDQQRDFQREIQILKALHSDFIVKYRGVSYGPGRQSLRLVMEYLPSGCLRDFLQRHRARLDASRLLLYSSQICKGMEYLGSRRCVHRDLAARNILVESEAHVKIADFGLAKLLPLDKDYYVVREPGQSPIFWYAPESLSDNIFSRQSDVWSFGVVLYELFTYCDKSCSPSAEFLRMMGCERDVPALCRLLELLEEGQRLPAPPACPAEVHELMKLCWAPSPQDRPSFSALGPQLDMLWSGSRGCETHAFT
T1 sequence (P23458 875-1153 limits assumed): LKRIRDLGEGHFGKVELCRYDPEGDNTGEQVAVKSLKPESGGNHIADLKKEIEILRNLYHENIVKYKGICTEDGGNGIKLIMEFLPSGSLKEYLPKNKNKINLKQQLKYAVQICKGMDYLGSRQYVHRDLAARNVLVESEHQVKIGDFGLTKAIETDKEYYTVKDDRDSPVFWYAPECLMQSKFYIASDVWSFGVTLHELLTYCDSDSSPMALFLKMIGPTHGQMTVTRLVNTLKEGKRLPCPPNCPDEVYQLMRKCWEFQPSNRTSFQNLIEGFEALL

As usually defined, the IC50 is the concentration that inhibits the measured activity by half. As to `[2H]C([2H])([2H])NC(=O)c1cnc(Nc2ccc(F)cn2)cc1Nc1cccc2c1N(C)CCn1cnnc1-2` [Compound 79, 6-((5-fluoropyridin-2-yl)amino)-N-(methyl-d3)-4-((7-methyl-6,7-dihydro-5H-benzo[f][1,2,4]triazolo[4,3-d][1,4]diazepin-8-yl)amino)nicotinamide], the IC50 on JAK1 kinase domain (JH1) is more than 1 µM; in assay [1], 0.03 to 0.3 µM; on TYK2 kinase domain (JH1) it was more than 1 µM; on JAK2 kinase domain (JH1), more than 1 µM; in assay [2], 0.03 to 0.3 µM; in assay [3], less than 0.03 µM. In addition, the IC50 in assay [4] is less than 0.03 µM; at JAK3 kinase domain (JH1), more than 1 µM.

For `[2H]C([2H])([2H])NC(=O)c1cnc(Nc2cc(C)nc(C)n2)cc1Nc1cccc2c1N(C)CCn1cnnc1-2` [Compound 80, 6-((2,6-dimethylpyrimidin-4-yl)amino)-N-(methyl-d3)-4-((7-methyl-6,7-dihydro-5H-benzo[f][1,2,4]triazolo[4,3-d][1,4]diazepin-8-yl)amino)nicotinamide], the IC50 is more than 1 µM on JAK1 kinase domain (JH1); 0.03 to 0.3 µM in assay [1]; more than 1 µM at TYK2 kinase domain (JH1); 0.03 to 0.3 µM at JAK2 kinase domain (JH1); 0.03 to 0.3 µM in assay [2]; more than 1 µM in assay [3]. For the same molecule, the IC50 (in assay [4]; on JAK3 kinase domain (JH1)) was more than 1 µM each time.

As for `[2H]C([2H])([2H])NC(=O)c1cnc(NC(=O)C2CC2)cc1Nc1cc(F)cc2c1N(C)Cc1nc(C)nn1-2` [Compound 83, 6-(cyclopropanecarboxamido)-4-((8-fluoro-2,5-dimethyl-4,5-dihydro-[1,2,4]triazolo[1,5-a]quinoxalin-6-yl)amino)-N-(methyl-d3)nicotinamide], the IC50 was more than 1 µM at JAK1 kinase domain (JH1); 0.03 to 0.3 µM in assay [1]; more than 1 µM at TYK2 kinase domain (JH1); more than 1 µM on JAK2 kinase domain (JH1); less than 0.03 µM in assay [2]; more than 1 µM in assay [3]. For the same molecule, the IC50 (in assay [4]; at JAK3 kinase domain (JH1)) was more than 1 µM in each case.

Regarding `[2H]C([2H])([2H])NC(=O)c1cnc(NC(=O)C2CC2)cc1Nc1nccc2c1N(C)Cc1nc(C)nn1-2` [Compound 84, 6-(cyclopropanecarboxamido)-4-((2,5-dimethyl-4,5-dihydropyrido[3,4-e][1,2,4]triazolo[1,5-a]pyrazin-6-yl)amino)-N-(methyl-d3)nicotinamide], the IC50 on JAK1 kinase domain (JH1) is more than 1 µM; in assay [1] it was 0.03 to 0.3 µM; at TYK2 kinase domain (JH1), more than 1 µM; at JAK2 kinase domain (JH1), more than 1 µM; in assay [2], less than 0.03 µM; in assay [3], more than 1 µM. Also, the IC50 (in assay [4]; at JAK3 kinase domain (JH1)) was more than 1 µM each time.

`[2H]C([2H])([2H])NC(=O)c1nnc(NC(=O)C2CC2)cc1Nc1nccc2c1N(C)Cc1nc(C)nn1-2` [Compound 85, 6-(cyclopropanecarboxamido)-4-((2,5-dimethyl-4,5-dihydropyrido[3,4-e][1,2,4]triazolo[1,5-a]pyrazin-6-yl)amino)-N-(methyl-d3)pyridazine-3-carboxamide]: the IC50 is more than 1 µM on JAK1 kinase domain (JH1); 0.03 to 0.3 µM in assay [1]; more than 1 µM on TYK2 kinase domain (JH1); more than 1 µM on JAK2 kinase domain (JH1); less than 0.03 µM in assay [2]; more than 1 µM in assay [3]. For the same molecule, the concentration for half-maximal inhibition (IC50) in assay [4] is 0.03 to 0.3 µM; on JAK3 kinase domain (JH1), more than 1 µM.
